We go through six molecules from publication PMC11395566, “Novel Copper (II) Complexes with Fluorine-Containing Reduced Schiff Base Ligands Showing Marked Cytotoxicity in the HepG2 Cancer Cell Line” (International Journal of Molecular Sciences, 2024).

The target of one experiment is Jack bean urease (Canavalia ensiformis, UniProt P07374). Particulars: read-out: Urease inhibition IC50 ± SD, 15 min pre-incubation.
Experiment [1] deals with HepG2 hepatocellular carcinoma cells. The experiment can be described thus: Cytotoxicity, MTT assay. As to conditions: for IC50: HepG2, 24 h incubation, MTT. It counts as cell-based, human. Here is the method: The cytotoxic activity of the compounds L11–L14 and CuL11–CuL14 was evaluated in hepatocellular carcinoma HepG2 cells using the MTT assay. This colorimetric assay measures the reduction of the yellow tetrazolium salt 3-(4,5-dimethylthiazol-2-yl)-2,5-diphenyltetrazolium bromide (MTT) to purple formazan crystals by metabolically active cells.
HepG2 cells were seeded in 96-well plates at 70% confluency and pre-cultivated for 24 h before experiment in RPMI 1640 medium (Biosera, Cholet, France) with 10% fetal bovine serum, 1000 U·mL^−1 penicillin, and […] streptomycin, at 37 °C, 5% CO2 (maximum passage number 23).
HepG2 cells were incubated for 24 h with different concentrations (2–250 µM) of the tested compounds. The stock solutions of the compounds were freshly prepared in DMSO (Sigma-Aldrich, Burlington, MA, USA). Cells treated only with the RPMI 1640 medium served as a negative control, medium and DMSO served as a solvent control, and cells treated with cisplatin solution (Accord Healthcare, Harrow, UK) (2–250 µM) served as a positive control. After treatment, HepG2 cells were incubated for 4 h with MTT (Sigma Aldrich) solution (1mg/mL in PBS and complete RPMI medium). Then, the MTT solution was removed, and the formazan crystals were dissolved in DMSO for 30 min. The absorbance intensity was measured using an Epoch Spectrophotometer (BioTek, Winooski, VT, USA) at 570 nm. The experiments were performed in triplicate and cell cytotoxicity was expressed as a percentage relative to the untreated cells. Unexposed cells were used as a control and considered as having 100% cell viability. The viability of cells was calculated using the following formula:Viable cells (%) = A (treated cells)/A (control cells) × 100
The IC50 values were calculated using a four-parameter logistic regression model.

For experiment [2], the system named is S. aureus CNCTC Mau 29/58. Nature of the experiment: Antimicrobial activity, broth dilution method. Type of experiment: cell-based, Staphylococcus aureus. As to conditions: 24 h, 37 °C. The protocol:
(§1) The antimicrobial activities of the synthesized copper (II) complexes were evaluated against E. coli CNCTC 377/79 (Gram-negative bacterium), S. aureus CNCTC Mau 29/58 (Gram-positive bacterium), and the yeast C. albicans CCM 8186. Bacterial strains were obtained from the Czech National Collection of Type Cultures (National Institute of Public Health, Prague, Czech Republic) and the yeast was purchased from the Czech Collection of Microorganisms (Masaryk University, Brno, Czech Republic). Bacteria were grown aerobically in nutrient broth (IMUNA PHARM, Šarišské Michaľany, Slovakia) and the yeast in BD Difco Sabouraud dextrose broth (Becton, Dickinson and Company, Franklin Lakes, NJ, USA) for 18 h at 37 °C or 48 h at 24 °C, respectively. Cultures were then maintained at 4 °C on appropriate solid medium: Endo agar (Oxoid Ltd., Basingstoke, UK) for E. coli, blood agar (Biomark Laboratories, Pune, India) for S. aureus, and BD Sabouraud dextrose agar (Becton, Dickinson and Company, Franklin Lakes, NJ, USA) for C. albicans. Working cultures were prepared by the incubation of a single colony of each microorganism in NB (bacteria) or SDB (yeast) for 18 h at 37 °C or 48 h at 24 °C, respectively. A microbial suspension was prepared in saline solution (0.85% NaCl) according to McFarland standard No 0.5 using a Lambda 35 UV/VIS Spectrophotometer (PerkinElmer Inc., Shelton, CT, USA) to obtain a turbidity (concentration) of ca 1.5 × 10^8 cfu/cm^3. After the dilution in the appropriate liquid medium (NB for bacteria and SDB for yeast), a working turbidity of 1.5 × 10^7 cfu/cm^3 was prepared.
(§2) Antimicrobial activity was determined using the broth dilution method as described in [7]. Stock solutions with initial concentrations of approx. 45 mM for ligands and 27 mM for copper complexes were prepared in DMSO immediately before use. For comparison, ciprofloxacine was used as a standard compound. Working test ligands and copper complexes were prepared by the two-fold serial dilution of stock solutions in sterile doubly concentrated NB or SDB to a final volume 100 mm^3 within the 96-well microplates. Freshly prepared inoculum (5 mm^3) of the tested microorganism was added to each appropriate well (bacteria into the plates with NB, C. albicans into the plates with SDB). The final turbidity of each microorganism in each well was ca 7.5 × 10^5 cfu/cm^3. […] Each concentration was assayed in triplicate. […]

The test system of a further experiment is calf thymus DNA (ct-DNA). Nature of the experiment: Quenching of the fluorescence of EB-DNA adduct (ethidium bromide displacement). It counts as binding. As to conditions: for EB-DNA dynamic quenching constant Ksv / EB-DNA fluorescence quenching rate constant kq: Stern–Volmer equation; for ΔI/I0, quenching of EB-DNA fluorescence: complex 0 to 2 × 10^−4 M. Here is the method:
A stock solution of ct-DNA was prepared by dissolving 6 mg of ct-DNA in 5 mL of citrate buffer. The ability of the compounds to displace EB from its EB-DNA conjugate was investigated by fluorescence emission spectroscopy. The EB-DNA conjugate was prepared by adding 20 µM EB and 26 µM ct-DNA to citrate buffer. The measurements were performed by the gradual addition of the complex solution in DMSO (1 mM) to the EB-DNA conjugate solution and observing the changes in the fluorescence spectra. The spectra were recorded in the range of 550–700 nm and the excitation wavelength was set to 515 nm. The Stern–Volmer constant KSV was used to evaluate the quenching efficiency of the complexes according to the Stern–Volmer equation (Equation (1)).

For experiment [3], the system named is T1, bovine serum albumin (BSA).
T1 construct: Bovine serum albumin (BSA) was chosen over human serum albumin (HSA) as the model protein target; purchased Sigma-Aldrich
Nature of the experiment: Interaction with BSA by quenching of tryptophane fluorescence. As to conditions: for BSA binding constant K: Scatchard equation; for BSA fluorescence quenching rate constant kq / BSA fluorescence dynamic quenching constant Ksv: Stern–Volmer equation, 30 µM BSA in citrate buffer; for BSA fluorescence dynamic quenching constant Ksv: emission 336 nm. It counts as binding. Here is the method:
The interaction of all prepared copper complexes with BSA was studied by quenching the BSA fluorescence. BSA was dissolved in citrate buffer at the initial concentration of 30 µM. The quenching of the emission intensity of BSA tryptophane residues at 336 nm was monitored using the tested complexes (1 mM solution in DMSO) as quenchers with gradually increasing concentrations. The fluorescence emission spectra were recorded in the range of 300–420 nm. The wavelength of the excitation radiation was 280 nm. Measured data were used to study the interaction of a quencher with serum albumins using the Stern–Volmer (Equation (1)) and Scatchard (Equation (2)) equations, obtaining the Stern–Volmer constant KSV (M^−1), BSA quenching constant kq (M^−1 s^−1), binding constants KBSA (M^−1), and values of the number of binding sites n on albumin [45]. (1) I0/I=1+kqτ0 [Q]=1+KSV [Q] (2) ΔI/I0/[Q]=nKBSA−KBSAΔI/I0 where I0 = initial tryptophane fluorescence intensity of BSA, I = tryptophane fluorescence intensity of BSA after the addition of the complex, kq = quenching rate constant of BSA, KSV = dynamic quenching constant, τ0 = the average lifetime of BSA without the quencher, and [Q] = concentration of the quencher. KBSA is the bovine serum albumin binding constant and n is the number of binding sides per albumin.

The subject of the next experiment is E. coli CNCTC 377/79. Nature of the experiment: Antimicrobial activity, broth dilution method. Type of experiment: cell-based, Escherichia coli. Particulars: 24 h, 37 °C. The protocol:
as §1, §2

The test system of another experiment is C. albicans CCM 8186. Nature of the experiment: Antimicrobial activity, broth dilution method. Type of experiment: cell-based, Candida albicans. Particulars: 24 h, 24 °C. Here is the method:
as §1, §2

Several values for one entry are separate records, joined by “and”; a condition that tells them apart may be missing. Equal entries are not always repeated.

Jack bean urease, sequence (P07374 whole entry, looked up): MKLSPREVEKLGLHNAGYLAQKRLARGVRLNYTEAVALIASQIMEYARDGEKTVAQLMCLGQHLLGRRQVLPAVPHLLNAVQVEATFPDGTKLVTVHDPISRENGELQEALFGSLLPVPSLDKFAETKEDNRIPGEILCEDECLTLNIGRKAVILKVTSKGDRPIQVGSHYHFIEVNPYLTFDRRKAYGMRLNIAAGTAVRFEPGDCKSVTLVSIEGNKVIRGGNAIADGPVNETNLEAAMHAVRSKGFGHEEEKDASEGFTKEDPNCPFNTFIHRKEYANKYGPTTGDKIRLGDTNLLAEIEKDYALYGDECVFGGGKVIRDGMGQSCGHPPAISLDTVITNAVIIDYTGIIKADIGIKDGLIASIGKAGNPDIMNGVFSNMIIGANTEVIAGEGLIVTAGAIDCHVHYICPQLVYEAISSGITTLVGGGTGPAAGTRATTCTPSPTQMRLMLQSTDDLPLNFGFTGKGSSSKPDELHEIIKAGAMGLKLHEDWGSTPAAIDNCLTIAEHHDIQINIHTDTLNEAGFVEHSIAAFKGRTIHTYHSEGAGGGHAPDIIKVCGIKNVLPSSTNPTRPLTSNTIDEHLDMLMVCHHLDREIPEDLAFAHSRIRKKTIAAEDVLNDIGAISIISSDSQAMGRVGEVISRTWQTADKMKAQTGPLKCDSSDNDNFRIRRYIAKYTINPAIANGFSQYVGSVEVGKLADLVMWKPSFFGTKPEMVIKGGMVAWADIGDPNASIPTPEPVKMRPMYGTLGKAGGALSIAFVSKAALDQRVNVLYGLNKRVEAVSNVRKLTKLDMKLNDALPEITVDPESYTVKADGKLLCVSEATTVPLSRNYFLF
Experimental for Jack bean urease: The urease inhibition activity of complexes was determined using the modified method reported by [48]. The assay mixture, containing 75 μL of Jack bean urease and 75 μL of the tested compounds with various concentrations dissolved in DMSO, was pre-incubated for 15 min on a 96-well assay. Afterwards, 75 μL of phosphate buffer at pH 6.8 (containing phenol red 0.18 mM) and urea (400 mM) were added and incubated at room temperature. We used microplate reader (560 nm) to measure the reaction time required for enough ammonium carbonate to form to raise the pH of the phosphate buffer from 6.8 to 7.7. The end-point of the reaction was determined by the color change of the phenol red indicator. Acetohydroxamic acid was used as a reference.

`CC(=O)NO` [acetohydroxamic acid]: the IC50 on Jack bean urease was found to be 185 µM.
On to `N.N.[Cl][Pt][Cl]` [cisplatin, reference compound], for which, in experiment [1], inhibition was half-maximal at 337 ± 6.7 µM (IC50).
In the case of “Dichloro[(±)-trans-N,N′-bis-(3,5-bis-trifluoromethylbenzyl)-cyclohexane-1,2-diamine]copper (II) [Cu-L14]”, the “MIC S. aureus” value in experiment [2] turned out to be 213.2 µM. Moreover, in the experiment on calf thymus DNA (ct-DNA), the “EB-DNA dynamic quenching constant Ksv” value is given as 3.50 (±0.09) M^−1 × 10^3; the “EB-DNA fluorescence quenching rate constant kq” value is 1.52 (±0.04) M^−1 s^−1 × 10^11; the “ΔI/I0, quenching of EB-DNA fluorescence” value amounted to 60.7%. In experiment [3], the “BSA binding constant K” value is recorded as 5.13 (±0.50) × 10^3 M^−1, the “BSA fluorescence quenching rate constant kq” value was 6.39 (±0.19) × 10^11 M^−1s^−1 and the “BSA fluorescence dynamic quenching constant Ksv” value is on record as 6.39 (±0.19) × 10^3 M^−1. Moreover, in experiment [1], the IC50 was determined as 189 ± 7.1 µM. In addition, the “MIC E. coli” value in the experiment with E. coli CNCTC 377/79 turned out to be 213.2 µM. For the same molecule, the “MIC C. albicans” value against C. albicans CCM 8186 stood at 1705.6 µM.
Take “Dichloro[(±)-trans-N,N′-bis-(3,5-difluorobenzyl)-cyclohexane-1,2-diamine]copper (II) [Cu-L13]”: in experiment [2], the “MIC S. aureus” value came to 424.5 µM. In the experiment on calf thymus DNA (ct-DNA), the “EB-DNA dynamic quenching constant Ksv” value is listed as 3.51 (±0.08) M^−1 × 10^3; the “EB-DNA fluorescence quenching rate constant kq” value was 1.53 (±0.03) M^−1 s^−1 × 10^11; the “ΔI/I0, quenching of EB-DNA fluorescence” value is 60.3%. For the same molecule, in experiment [3], the “BSA binding constant K” value is given as 4.70 (±0.32) × 10^3 M^−1; the “BSA fluorescence quenching rate constant kq” value is 8.46 × 10^11 M^−1s^−1 and 8.46 (±0.26) × 10^11 M^−1s^−1; the “BSA fluorescence dynamic quenching constant Ksv” value is reported as 8.46 (±0.26) × 10^3 M^−1. Further, the IC50 in experiment [1] turned out to be 64.4 ± 3.2 µM. The “MIC E. coli” value against E. coli CNCTC 377/79 worked out at 212.3 µM. The “MIC C. albicans” value in the experiment on C. albicans CCM 8186 stood at 1698.1 µM.
For “Dichloro[(±)-trans-N,N′-bis-(4-fluorobenzyl)-cyclohexane-1,2-diamine]copper (II) [Cu-L11]”, the “MIC S. aureus” value in experiment [2] came to 217.3 µM. Further, in the experiment with calf thymus DNA (ct-DNA), the “EB-DNA fluorescence quenching constant (kq)” value stood at 1.48e+11 M⁻¹ s⁻¹; the “EB-DNA dynamic quenching constant Ksv” value is given as 3.40 (±0.08) M^−1 × 10^3; the “EB-DNA fluorescence quenching rate constant kq” value is 1.48 (±0.04) M^−1 s^−1 × 10^11; the “ΔI/I0, quenching of EB-DNA fluorescence” value came to 61.3%. For the same molecule, in experiment [3], the “BSA binding constant K” value is 5.99 (±0.44) × 10^3 M^−1, the “BSA fluorescence quenching rate constant kq” value amounted to 3.88e+11 M⁻¹ s⁻¹ and the “BSA fluorescence dynamic quenching constant Ksv” value is reported as 3.90 (±0.08) × 10^3 M^−1. Also, half-maximal inhibition in experiment [1] (IC50) required 61.3 ± 3.4 µM. Further, the “MIC E. coli” value in the experiment on E. coli CNCTC 377/79 was determined as 217.3 µM. Further, the “MIC C. albicans” value against C. albicans CCM 8186 was 1738.1 µM.
In the case of “Dichloro[(±)-trans-N,N′-bis-(4-trifluoromethylbenzyl)-cyclohexane-1,2-diamine]copper (II) [Cu-L12]”, in experiment [2], the “MIC S. aureus” value is 26.7 µM. For the same molecule, in the experiment with calf thymus DNA (ct-DNA), the “EB-DNA dynamic quenching constant Ksv” value is 3.58 (±0.09) M^−1 × 10^3; the “EB-DNA fluorescence quenching rate constant kq” value is recorded as 1.56 (±0.04) M^−1 s^−1 × 10^11; the “ΔI/I0, quenching of EB-DNA fluorescence” value turned out to be 59.7%. For the same molecule, in experiment [3], the “BSA binding constant K” value is 8.59 (±0.64) × 10^3 M^−1, the “BSA fluorescence quenching rate constant kq” value is given as 5.62 (±0.20) × 10^11 M^−1s^−1 and the “BSA fluorescence dynamic quenching constant Ksv” value is given as 5.62 (±0.20) × 10^3 M^−1. The IC50 in experiment [1] came out at 28.7 ± 2 µM. For the same molecule, the cell survival in experiment [1] (HepG2, at a 50 µM concentration) is given as 9.40%. The “MIC E. coli” value against E. coli CNCTC 377/79 was 26.7 µM. Further, the “MIC C. albicans” value in the experiment on C. albicans CCM 8186 was determined as 855.3 µM.
